From patent US20020127536A1, “Mitochondrial assay” (priority 2001, published 2002)
“Also recorded” adds a separate entry of the source.

Experiments:
[1] = tested on: mitochondrial respiratory complex I; details: literature statement; cited from earlier work
ATP synthetase = test: Polarographic assay of ADP-stimulated coupled versus uncoupled respiration: inhibition of ATP synthetase; format: biochemical; details: 500 μM drug; isolated rat liver mitochondria; qualitative
Protocol: (§1) When coupling is intact, basal respiration will be stimulated by the addition of ADP to invoke ATP synthesis, as electron transport is stepped up to replace the H^+ gradient that is used by the ATP synthetase enzyme. If the drug inhibits this coupled respiration rate, the inhibition could be due either to inhibition of the ATP synthetase itself or to inhibition of the electron transport rate that supports the ATP synthesis. To detect which is inhibited, the drug is also tested for inhibition of maximal electron transport rates in the presence of a known uncoupler. Inhibition of the coupled, but not the uncoupled respiration rate pinpoints the inhibition to the ATP synthetase or to one of the supporting transport processes such as the phosphate or ADP/ATP transporters.
as §1, with “The third test examines whether the drug inhibits ATP synthetase. When” for “When”, “the difference,” for “which is inhibited,”, “uncoupler, as in the first test described supra.” for “uncoupler.”, “coupled” for “coupled,”, “as” for “as the”
When coupling is intact, basal respiration is stimulated by the addition of ADP which stimulates ATP synthesis, as electron transport is stepped up to re-establish the H^+ gradient that is used by the ATP synthetase enzyme. If the drug inhibits this coupled respiration rate, the inhibition could be due either to inhibition of the ATP synthetase itself or to inhibition of the electron transport rate that supports the ATP synthesis. Haloperidol, quetiapine, risperidone, and clozapine were tested for inhibition of maximal electron transport rates in the presence and absence of a known uncoupler (FIG. 4). Inhibition of the coupled, but not the uncoupled respiration rate pinpoints the inhibition to the ATP synthetase or to one of the supporting transport processes such as phosphate or ADP/ATP transporters.

[2] = tested on: isolated rat liver mitochondria; test: Polarographic assay of basal respiration: uncoupling action; format: biochemical; details: for Uncoupling: 500 μM drug, isolated rat liver mitochondria, qualitative; for Uncoupling action (in words): drug added to rat liver mitochondria respiring in the basal state
Description: Normally electron transport proceeds at a slow basal rate in the presence of an oxidizable substrate unless the H^+ gradient is dissipated by a need for ATP synthesis. However, if the H^+ gradient is dissipated by the addition of a chemical that alters membrane permeability to H^+, respiration will be stimulated unproductively, that is, without concomitant ATP synthesis, so that energy is wasted. […] If respiration (oxygen consumption) is stimulated, uncoupling is inferred.
The second test determines whether the drug uncouples electron transport from ATP synthesis. Normally, in these preparations, electron transport will proceed at a slow basal rate in the presence of an oxidizable substrate, unless the H^+ gradient is dissipated by a need for ATP synthesis. However, if the H^+ gradient is dissipated by the addition of a drug that alters membrane permeability to H^+, respiration will be stimulated unproductively (i.e., without concomitant ATP synthesis) so that energy is wasted. […] If respiration (e.g., oxygen consumption) is stimulated, uncoupling is inferred.
Normally electron transport proceeds at a slow basal rate in the presence of an oxidizable substrate unless the H^+ gradient is dissipated by a need for ATP synthesis. However, if the H^+ gradient is dissipated by the addition of a drug that alters membrane permeability to H^+ , respiration will be stimulated unproductively without concomitant ATP synthesis so that energy is wasted. Haloperidol, quetiapine, risperidone, and clozapine were added to mitochondria respiring in the basal state (FIG. 3). If respiration (i e., oxygen consumption) is stimulated, uncoupling is inferred.

respiratory complex I = details: glutamate+malate; for El. Transport Site I: 500 μM drug, isolated rat liver mitochondria, qualitative; for Inhibition of electron transport at respiratory complex I (in words): rat liver mitochondria, 2,4-dinitrophenol added, preliminary data
Protocol: A known uncoupler (2,4-dinitrophenol) was added in the presence of an oxidizable substrate to elicit maximal electron transport rates, measured as the maximal rate of oxygen consumption; a slower rate in the presence of the drug indicates inhibition somewhere in the electron transport chain. The assay is performed with different substrates that donate electrons at either respiratory complex I (glutamate+malate) or at complex II (succinate) or through electron-transferring flavoprotein (ETF) (not shown) to gain information about site-specific inhibition.
This first test answers the questions of whether the compound under study inhibits electron transport, and if so, whether inhibition involves specific respiratory enzyme complexes in the electron transport chain. A known uncoupler of oxidative phosphorylation (e.g., 2,4-dinitrophenol) is added to the preparation to elicit maximal electron transport rates, measured as the rate of oxygen consumption. A slower rate in the presence of the drug indicates inhibition somewhere along the electron transport chain. The test is performed with different substrates that donate electrons at either respiratory complex I (glutamate and malate) or at complex II (succinate) or via electron-transferring flavoprotein (ETF) to gain information about site-specific inhibition.
(§2) Mitochondrial respiration is measured polarographically using a Clark oxygen electrode. To test for drug effect, an appropriate concentration of drug is introduced at the beginning of the assay, prior to the addition of substrate. The test substance (e.g., drug) is thus present continuously in the assays as the basal, coupled and uncoupled rates are successively determined. The solvent in which the drug is dissolved is tested alone as the control.
Stimulation of basal respiration by the drug indicates uncoupling. If inhibition of the coupled rate is observed, this could be due to inhibition of ATP synthetase function, or to inhibition of electron transport. If the addition of uncoupler fails to relieve the inhibition, then the drug is inhibiting electron transport; and if the addition of uncoupler relieves the inhibition, then the drug is inhibiting ATP synthetase function.
Information about site specific electron transport inhibition can be obtained with this assay by using substrates that donate electrons to the respiratory chain at different branch sites. For example, by separately including either succinate which donates to complex II or glutamate+malate which donates electrons to complex I, or other organic acids which donate through electron-transferring flavoprotein (ETF).
(§3) Rates were measured as the rate of oxygen consumption. A slower rate in the presence of the drug indicates inhibition somewhere in the electron transport chain. The tests were performed with different substrates that donate electrons at either respiratory complex I (glutamate+malate) or at complex II (succinate) to gain information about site-specific inhibition.

electron transport chain = test: Polarographic assay of maximal electron transport rate (oxygen consumption), overall inhibition; format: biochemical; details: rat liver mitochondria, maximal rate of oxygen consumption with 2,4-dinitrophenol
Protocol: A known uncoupler (2,4-dinitrophenol) was added in the presence of an oxidizable substrate to elicit maximal electron transport rates, measured as the maximal rate of oxygen consumption; a slower rate in the presence of the drug indicates inhibition somewhere in the electron transport chain.
A known uncoupler of oxidative phosphorylation (e.g., 2,4-dinitrophenol) is added to the preparation to elicit maximal electron transport rates, measured as the rate of oxygen consumption. A slower rate in the presence of the drug indicates inhibition somewhere along the electron transport chain. The test is performed with different substrates that donate electrons at either respiratory complex I (glutamate and malate) or at complex II (succinate) or via electron-transferring flavoprotein (ETF) to gain information about site-specific inhibition.
as §2, §3

respiratory complex II = test: Polarographic assay of uncoupled (2,4-dinitrophenol) maximal respiration with succinate: inhibition of electron transport at site II; format: biochemical; details: 500 μM drug, isolated rat liver mitochondria, qualitative

Compound	Inhibition of mitochondrial complex I (in words) [1]	ATP Synthesis (ATP synthetase)	Uncoupling [2]	Uncoupling action (in words) [2]	El. Transport Site I (respiratory complex I)	Inhibition of electron transport, overall (in words) (electron transport chain)	Inhibition of electron transport, overall (in words) (electron transport chain; listed as thioridazine)	El. Transport Site II (respiratory complex II)	Inhibition of electron transport at respiratory complex I (in words) (respiratory complex I)	Stimulation of basal respiration ([2]; known uncoupler, rat liver mitochondria in basal state with oxidizable substrate)
O=C(CCC[n+]1ccc(-c2ccc(Cl)cc2)cc1)c1ccc(F)cc1 [HPP^+]	potent inhibitor of mitochondrial complex I									
CSc1ccc2c(c1)N(CCC1CCCCN1C)c1ccccc1S2 (stereo not drawn) [Thioridazine]		−	++	more potent than clozapine	+++	inhibited electron transport markedly but not specifically at either complex I or II	potent inhibitors of electron transport	+		
Cc1nc2n(c(=O)c1CCN1CCC(c3noc4cc(F)ccc34)CC1)CCCC2 [Risperidone]		−	++	more potent than clozapine	+++	inhibited electron transport markedly but not specifically at either complex I or II; also recorded: potent inhibitors of electron transport		+		
O=C(CCCN1CCC(O)(c2ccc(Cl)cc2)CC1)c1ccc(F)cc1 [Haloperidol]		−	−		++	potent inhibitors of electron transport		−	inhibited electron transport specifically at respiratory complex I	
C[n+]1ccc(-c2ccccc2)cc1 [MPP^+, 1-methyl-4-phenylpyridinium]	potent and specific inhibitor of mitochondrial respiratory complex I									
CN(C)CCCN1c2ccccc2Sc2ccc(Cl)cc21 [Chlorpromazine]		−	++	more potent than clozapine	+++	potent inhibitors of electron transport		+	inhibited electron transport specifically at respiratory complex I	
OCCOCCN1CCN(C2=Nc3ccccc3Sc3ccccc32)CC1 [Quetiapine]		−	+	more potent than clozapine	+	very mild effects		−	had a slight effect and was also specific for complex I	
O=[N+]([O-])c1ccc(O)c([N+](=O)[O-])c1 [2,4-dinitrophenol]										6-10 fold
